One data set concerns SD rats. Kind of data set: Autonomous activity of rats. The format is in vivo. Particulars: rat, in vivo. Here is the method: The animals were placed in the test box immediately after administration, and the activity distance of the animals within 60 minutes was recorded and analyzed using Top Scan Version 3.0. […] The experimental data were expressed by mean ± standard deviation (Mean ± SD), and SPSS 21.0 statistical software was used for one-way analysis of variance. The Dunnett's test was used for pairwise comparison, and p<0.05 was represented as *.

Data set [1] can be described thus: in vivo. Particulars: rat.
For a further data set, the target named is T1, OX1 receptor (Homo sapiens, UniProt O43613).
T1 construct: host or cells: CHO-K1
T1 sequence (O43613 1-425): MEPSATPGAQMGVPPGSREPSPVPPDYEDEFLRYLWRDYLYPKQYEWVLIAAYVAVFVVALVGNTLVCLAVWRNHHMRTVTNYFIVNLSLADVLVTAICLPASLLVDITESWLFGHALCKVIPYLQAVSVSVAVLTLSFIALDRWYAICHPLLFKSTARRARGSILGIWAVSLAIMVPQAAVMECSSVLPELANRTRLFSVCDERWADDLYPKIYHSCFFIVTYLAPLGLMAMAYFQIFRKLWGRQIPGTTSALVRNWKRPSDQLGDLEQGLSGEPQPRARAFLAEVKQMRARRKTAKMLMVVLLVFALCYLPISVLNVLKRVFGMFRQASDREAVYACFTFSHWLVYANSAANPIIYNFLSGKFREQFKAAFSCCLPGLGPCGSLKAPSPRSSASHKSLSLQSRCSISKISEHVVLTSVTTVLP
Kind of data set: Orexin target function test (Cisbio HTRF IP-one), CHO-K1-OX1 cells, antagonism of EC80 Orexin A. Format: cell-based. The procedure:
(§1) Using Cisbio HTRF IP-one kit to detect the changes in IP-one concentration of orexin receptor (OX1/OX2) signaling pathway by microplate reader, and calculating the IC50 value of the compound to evaluate the antagonistic effect of the compound on OX1 and OX2 receptors.
(§2) The cells were centrifuged at 1000 rpm for 5 minutes and the supernatant was discarded. 3 mL of PBS was added, and gently blown with a pipette to mix. After centrifugation at 1000 rpm for 5 minutes again, the supernatant was discarded. […] Based on the antagonistic effect values of the compound samples at different concentrations, the GraphPad Prism software was used to fit the orexin receptor antagonism curve of the compound samples and calculate the IC50.
For orientation: Time-resolved FRET reads energy transfer from a long-lived donor to a nearby acceptor.

A further data set addresses T2, OX2 receptor (Homo sapiens, UniProt O43614).
T2 construct: host or cells: CHO-K1
T2 sequence (O43614 1-444): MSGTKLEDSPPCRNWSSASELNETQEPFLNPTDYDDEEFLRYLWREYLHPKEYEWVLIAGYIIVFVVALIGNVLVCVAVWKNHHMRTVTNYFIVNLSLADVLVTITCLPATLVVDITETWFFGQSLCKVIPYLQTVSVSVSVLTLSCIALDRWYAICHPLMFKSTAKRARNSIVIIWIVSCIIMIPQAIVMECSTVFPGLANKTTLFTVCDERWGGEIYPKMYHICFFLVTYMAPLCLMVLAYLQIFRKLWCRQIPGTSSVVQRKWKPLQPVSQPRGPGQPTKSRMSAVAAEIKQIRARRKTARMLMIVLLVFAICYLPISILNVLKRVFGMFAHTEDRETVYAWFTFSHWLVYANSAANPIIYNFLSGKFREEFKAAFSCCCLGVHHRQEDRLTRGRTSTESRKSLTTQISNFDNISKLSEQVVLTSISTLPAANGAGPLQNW
Nature of the data set: Orexin target function test (Cisbio HTRF IP-one), CHO-K1-OX2 cells, antagonism of EC80 Orexin 2 receptor agonist. Format: cell-based. Here is the method: as §1, §2

A short description of data set [2]: Blood-brain barrier permeability of the test substance in rats. Particulars: male, SD, rat, oral, 30 mg/kg; for Kp at 0.25 h: brain/plasma.
Description: (§3) Twelve male SD rats were randomly divided into 4 groups, with 3 rats in each group. They were fasted for 8 hours before the test and had free access to water. The rats were intragastrically administered with 30 mg/kg of the test substance solution, and 0.3 mL of blood was collected from the jugular venous plexus of the rats before and 0.25 hours after administration. The rats were then anesthetized, the chest cavity was opened, the right atrial appendage was cut, and the blood was rapidly perfused from the back of the left ventricle. When the outflowing liquid was transparent and bloodless, the perfusion could be stopped, and the brain tissue was removed, dried with filter paper, weighed, and homogenized with an appropriate amount of physiological saline (1:4, v/v) to prepare a brain tissue homogenate. The whole blood sample was centrifuged at 4000 r/min for 10 min to separate the plasma.
(§4) The established LC-MS/MS method is used to detect the concentration of the test substance in plasma and brain tissue homogenate. The brain-to-blood ratio (Kb/p) of the test substance can be obtained by dividing the drug concentration in brain tissue by the drug concentration in plasma.
Data set [3] in a line: in vivo. Particulars: male, SD, rat, 30 mg/kg.
Description: as §3, §4
The conditions of data set [4]: male, SD, rat, in vivo, 30 mg/kg.
Description: as §3, §4
Setting [5] is: CHO-K1-OX1 cells, IP-one, read-out: hOXIR IC50.
[6] abbreviates: CHO-K1-OX2 cells, IP-one, read-out: hOX2R IC50.

The results in this text go back to EP4635949A1 (Jiangsu NHWA Pharmaceutical Co., Ltd, priority 2022, dated 2024).

Where two headings read alike, the source gives them in different places. Marks after values point to notes of the source that are not given here.

With `COc1ccc(C(=O)N2CC3C=C(c4nc(C)c(F)c(C)n4)CC3C2)c(-n2nccn2)c1` (stereo not shown) [Compound 5, (5-(5-fluoro-4,6-dimethylpyrimidin-2-yl)-3,3a,4,6a-tetrahydrocyclopenta[c]pyrrol-2(1H)-yl)(4-methoxy-2-(2H-1,2,3-triazol-2-yl)phenyl)methanone], in the data set on SD rats (10 mg/kg), the “Activity distance (mm)” value is given as 44396.01±2185.62 mm and the “Inhibition rate(%)” value was 37.50* %. Besides, in the data set on SD rats (30 mg/kg), the “Activity distance (mm)” value was 32526.47±1464.45 mm and the “Inhibition rate(%)” value is given as 45.79* %. Also, in “in vivo [1]” (male, SD, plasma, iv, 1 mg/kg), the AUC(0-t) (commonly the area under the concentration-time curve up to a stated or last time point) was 738 ng·h/mL and the highest level (Cmax) was 1600 ng/mL. Besides, in “in vivo [1]” (male, SD, plasma, po, 30 mg/kg), the AUC(0-t) is 18500 ng·h/mL; the Cmax (in general, the highest concentration seen after dosing) stood at 13800 ng/mL; the bioavailability (commonly dose-corrected exposure relative to a reference, in per cent) was 83.6%. The IC50 (usually the midpoint of a concentration-inhibition curve) against OX1 receptor was 2800 nM. On OX2 receptor, the half-inhibitory concentration (IC50) came out at 16 nM and the Selectivity turned out to be 171.
As to `COc1cc(-n2nccn2)c(C(=O)N2CC3C=C(c4nc(C)c(F)c(C)n4)CC3C2)cn1` (stereo not shown) [Compound 22], in the data set with SD rats (10 mg/kg), the “Activity distance (mm)” value turned out to be 43970.97±9243.91 mm and the “Inhibition rate(%)” value is 38.10* %. In the data set with SD rats (30 mg/kg), the “Activity distance (mm)” value is listed as 37396.46±6850.26 mm and the “Inhibition rate(%)” value is recorded as 47.35* %. For the same molecule, in the data set with SD rats (50 mg/kg), the “Activity distance (mm)” value stood at 33132.59±9708.72 mm and the “Inhibition rate(%)” value is recorded as 56.36* %. In “in vivo [1]” (in vivo, iv, 1 mg/kg), this molecule came in with an AUC(0-t) of 305 ng·h/mL and a Cmax of 943 ng/mL. In addition, in the data set “in vivo [1]” (in vivo, po, 30 mg/kg), the AUC(0-t) was determined as 2640 ng·h/mL, the highest level (Cmax) was 1940 ng/mL and the bioavailability worked out at 28.9%. In addition, on OX1 receptor, the IC50 amounted to 2780 nM. On OX2 receptor, this molecule showed an IC50 of 15 nM and a Selectivity of 185.
As for `COc1ncc(C)nc1C1=CC2CN(C(=O)c3c(F)cccc3-n3nccn3)CC2C1` (stereo not shown) [Compound 39, (2-fluoro-6-(2H-1,2,3-triazol-2-yl)phenyl)(5-(3-methoxy-6-methylpyrazin-2-yl)-3,3a,4,6a-tetrahydrocyclopenta[c]pyrrol-2(1H)-yl)methanone], the figures for the IC50 at OX1 receptor (setting [5]) and on OX2 receptor (setting [6]) were 1200 nM and 20 nM, respectively. The Selectivity at OX2 receptor was 60. The concentration at 0.25 h came to 285 ng/g in data set [2] (brain) and 1020 ng/mL in data set [2] (plasma). In addition, the Kp at 0.25 h in data set [2] is 0.28.
Regarding `COc1ccc(C(=O)N2CC3C=C(c4nc(C)cnc4OC)CC3C2)c(-n2nccn2)c1` (stereo not shown) [Compound 41, (4-methoxy-2-(2H-1,2,3-triazol-2-yl)phenyl)(5-(3-methoxy-6-methylpyrazin-2-yl)-3,3a,4,6a-tetrahydrocyclopenta[c]pyrrol-2(1H)-yl)methanone], the AUC(0-t) in “in vivo [1]” (male, SD, plasma, iv, 1 mg/kg) was 389 ng·h/mL; in “in vivo [1]” (male, SD, plasma, po, 30 mg/kg) it was 5600 ng·h/mL. In addition, the highest concentration (Cmax) in the data set “in vivo [1]” (male, SD, plasma, iv, 1 mg/kg) was 706 ng/mL; in the data set “in vivo [1]” (male, SD, plasma, po, 30 mg/kg), 3980 ng/mL. In “in vivo [1]” (male, SD, plasma, po, 30 mg/kg), this molecule came in with a bioavailability of 48%. Besides, the IC50 on OX1 receptor (setting [5]) stood at 1650 nM; on OX2 receptor (setting [6]), 19 nM. For the same molecule, the Selectivity on OX2 receptor is listed as 87. Also, the concentration at 0.25 h is 990 ng/g in data set [2] (brain) and 2570 ng/mL in data set [2] (plasma). The Kp at 0.25 h in data set [2] was 0.39.
For the molecule `COc1cc(C(=O)N2CC3C=C(c4nc(C)cnc4OC)CC3C2)c(-n2nccn2)cn1` (stereo not shown) [Compound 42, (2-methoxy-5-(2H-1,2,3-triazol-2-yl)pyridin-4-yl)(5-(3-methoxy-6-methylpyrazin-2-yl)-3,3a,4,6a-tetrahydrocyclopenta[c]pyrrol-2(1H)-yl)methanone], the figures for the IC50 at OX1 receptor (setting [5]) and at OX2 receptor (setting [6]) were 1300 nM and 24 nM, respectively. The Selectivity on OX2 receptor is listed as 54. For the same molecule, the concentration at 0.25 h in data set [2] (brain) turned out to be 193 ng/g; in data set [2] (plasma) it was 372 ng/mL. For the same molecule, the Kp at 0.25 h in data set [2] amounted to 0.52.
As for `COc1ncc(C)nc1C1=CC2CN(C(=O)c3ccc(F)cc3-n3nccn3)CC2C1` (stereo not shown) [Compound 44, [4-fluoro-2-(2H-1,2,3-triazol-2-yl)phenyl][5-(3-methoxy-6-methylpyrazin-2-yl)-3,3a,4,6a-tetrahydrocyclopenta[c]pyrrol-2(1H)-yl]methanone], the Kp in the data set “in vivo [3]” is 0.98. Moreover, in data set [4], the “Brain” value came to 231.3 ng/g and the “Plasma” value is 235.6 ng/mL. For the same molecule, the IC50 against OX1 receptor is 2400 nM. At OX2 receptor, the IC50 was 18 nM and the Selectivity is reported as 133.
Regarding `CCOc1ncc(C)nc1C1=CC2CN(C(=O)c3ccc(OC)cc3-n3nccn3)CC2C1` (stereo not shown) [Compound 46, [5-(3-ethoxy-6-methylpyrazin-2-yl)-3,3a,4,6a-tetrahydrocyclopenta[c]pyrrol-2(1H)-yl][4-methoxy-2-(2H-1,2,3-triazol-2-yl)phenyl]methanone], the concentration at 0.25 h in data set [2] (brain) is 210 ng/g; in data set [2] (plasma), 485 ng/mL. In data set [2], this molecule had a Kp at 0.25 h of 0.43.
